Measurements published in US11479550B2, “EP4 antagonist” (ONO PHARMACEUTICAL CO., LTD., priority 2017, dated 2022).

Columns and labels:
human EP3 receptor = human EP3 receptor (Homo sapiens (Human), UniProt P43115); experiment: EP3 binding activity measurement experiment using prostanoid receptor subtype expressing cells; details: human EP3 receptor expressing cell membrane fraction; [3H]-PGE2 2.5 nmol/L; Ki calculated from estimated IC50
Protocol: To each well of a 96 well plate, 10 μL of a medium (dimethyl sulfoxide; DMSO) which had been 10-fold diluted with an assay buffer solution (10 mmol/L KH2PO4—KOH containing 1 mmol/L EDTA, 10 mmol/L Mg^2+ and 100 mmol/L NaCl, pH6.0) or a DMSO solution of a test compound (final concentration of DMSO: 0.5%), 90 μL of assay buffer solution, 50 μL of 10 nmol/L [^3H]-PGE2 (final concentration: 2.5 nmol/L), and 50 μL of human EP3 receptor expressing cell membrane fraction (manufactured by Millipore) (membrane protein mass: 2.5 μg) were placed, and subjected to incubation at room temperature. In nonspecific binding group, instead of the medium, […] of PGE2 was added (final concentration of PGE2: 10 μmol/L). After 60 minutes, a membrane fraction was subjected to suction filtration using a cell harvester, and collected onto a glass fiber (GF/B) plate (hereinafter, “filter plate”) which had been wetted with a washing buffer solution (10 mmol/L KH2PO4—KOH containing 100 mmol/L NaCl, pH6.0) in advance. Furthermore, an operation of adding about 0.2 mL of the washing buffer solution to the 96 well plate after suction filtration, and carrying out suction filtration was repeated twice, and the remaining membrane fractions were collected. The filter plate was washed with […] of washing buffer solution twice, and then dried at 50° C. to 60° C. for about 60 minutes. After an accessary back seal was attached to the bottom surface of the filter plate, about 50 μL per well of liquid scintillation cocktail was added to the filter plate, and a scaling film sheet was attached to the upper surface of the filter plate. The filter plate was shaken, and then radioactivity (cpm) of the filter plate was measured using a microplate scintillation counter. A specific binding amount of [^3H]-PGE2 to EP3 receptor was calculated by subtracting the radioactivity of the nonspecific binding group from the radioactivity other than the radioactivity of the nonspecific binding group. The inhibition rate by the test compound was calculated from the specific binding amount of [^3H]-PGE2 in a medium group and the compound of the present invention group, a Ki value (dissociation constant of the test compound) was calculated from estimated IC50 value (the concentration of the test compound required for inhibiting 50% with respect to the specific binding amount of the medium group) according to the following formula.
Note here that the Kd value of [^3H]-PGE2 was estimated from nonlinear regression analysis by calculating a specific binding amount at the time when [^3H]-PGE2 having various concentrations according to the above method was added. As a result, it was shown that the compound of the present invention had weak binding activity with respect to EP3 receptor, and was an antagonist selective to the EP4 receptor. Note here that binding activities with respect to EP1 and EP2 receptors can be measured by the same method as the measurement experiment of the EP3 binding activity measurement experiment.

human EP4 receptor = human EP4 receptor (Homo sapiens (Human), UniProt P35408); experiment: EP4 antagonistic activity measurement experiment using prostanoid receptor subtype expressing cells; type: cell-based; details: CHO cells expressing human EP4 receptor; inhibition of cAMP production by PGE2 10 nM; 30 minutes at room temperature
Sequence of human EP4 receptor (P35408 whole entry): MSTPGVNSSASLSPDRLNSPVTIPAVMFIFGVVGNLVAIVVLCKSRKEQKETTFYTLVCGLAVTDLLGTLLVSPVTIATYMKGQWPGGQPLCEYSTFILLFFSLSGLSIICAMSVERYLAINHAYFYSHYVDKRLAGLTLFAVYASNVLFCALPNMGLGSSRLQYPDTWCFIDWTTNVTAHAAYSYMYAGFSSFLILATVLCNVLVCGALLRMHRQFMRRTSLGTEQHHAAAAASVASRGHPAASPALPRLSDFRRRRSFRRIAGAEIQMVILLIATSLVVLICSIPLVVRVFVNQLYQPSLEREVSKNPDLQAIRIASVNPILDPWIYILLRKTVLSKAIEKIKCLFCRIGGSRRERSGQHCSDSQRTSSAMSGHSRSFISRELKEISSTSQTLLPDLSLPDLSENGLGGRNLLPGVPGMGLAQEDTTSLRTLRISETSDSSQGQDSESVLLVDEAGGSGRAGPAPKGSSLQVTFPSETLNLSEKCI
Protocol: CHO cells expressing human EP4 receptor subtypes were prepared according to the methods of Nishigaki et al. (Non-Patent Literature 4), and used for experiment. Cells cultured to subconfluent were detached, and suspended in an assay medium (MEM containing 1 mmol/L IBMX, 1% HSA) such that a concentration became 1×10^6 cells/mL. For reaction, PGE2 was added to the cell suspension (25 μL) in a final concentration of 10 nmol/L, either alone or as a 25-μL PGE2 solution containing the test compound. After 30 minutes of reaction at room temperature, the amount of cAMP in the cells was quantified according to the method in the descriptions of the cAMP assay kit (CISBIO).
Note here that the antagonistic effect (IC50 value) of the test compound was calculated as a value that represents an inhibition rate against a reaction with PGE2 alone at 10 nM, a concentration that produces a submaximal cAMP producing effect.

Sequence of human EP3 receptor (P43115 whole entry): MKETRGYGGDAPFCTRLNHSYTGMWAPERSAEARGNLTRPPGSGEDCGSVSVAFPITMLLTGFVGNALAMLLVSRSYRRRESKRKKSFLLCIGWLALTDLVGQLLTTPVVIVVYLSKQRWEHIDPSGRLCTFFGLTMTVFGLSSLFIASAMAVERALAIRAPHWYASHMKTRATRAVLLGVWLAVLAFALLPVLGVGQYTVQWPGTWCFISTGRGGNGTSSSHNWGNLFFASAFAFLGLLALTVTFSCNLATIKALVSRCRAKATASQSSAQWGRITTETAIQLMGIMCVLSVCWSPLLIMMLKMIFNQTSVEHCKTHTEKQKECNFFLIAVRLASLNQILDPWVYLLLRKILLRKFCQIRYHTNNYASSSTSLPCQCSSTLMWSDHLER

| SMILES | Ki (human EP3 receptor) [nM] | IC50 (human EP4 receptor) [nM] |
| --- | --- | --- |
| COCCNC(=O)c1ccc2c(C)cn(C(C)C(=O)Nc3cc(Cn4cc(C)cn4)ccc3CCCC(=O)O)c2c1 (single isomer, unassigned) [Example 3-9(2), 4-{2-[(2-{6-[(2-methoxyethyl)carbamoyl]-3-methyl-1H-indol-1-yl}propanoyl)amino]-4-[(4-methyl-1H-pyrazol-1-yl)methyl]phenyl}butanoic acid] | 410 | 0.7 |
| CNC(=O)c1ccc2c(c1)c(C)cn2C(C)C(=O)Nc1cc(Cn2cc(C)cn2)ccc1CCCC(=O)O (single isomer, unassigned) [Example 8-3(2), 4-{2-({2-[3-methyl-5-(methylcarbamoyl)-1H-indol-1-yl]propanoyl}amino)-4-[(4-methyl-1H-pyrazol-1-yl)methyl]phenyl}butanoic acid] | 1500 | 4.8 |
| COCCNC(=O)c1ccc2c(c1)c(C)cn2C(C)C(=O)Nc1cc(Cn2cc(C)cn2)ccc1CCCC(=O)O (single isomer, unassigned) [Example 8-13(2), 4-{2-[(2-{5-[(2-methoxyethyl)carbamoyl]-3-methyl-1H-indol-1-yl}propanoyl)amino]-4-[(4-methyl-1H-pyrazol-1-yl)methyl]phenyl}butanoic acid] | 1600 | 6.3 |
| COCCNC(=O)c1ccc2c(C)cn(C(C)C(=O)Nc3cc(C#N)ccc3CCCC(=O)O)c2c1 (single isomer, unassigned) [Example 11-15(2), 4-{4-cyano-2-[(2-{6-[(2-methoxyethyl)carbamoyl]-3-methyl-1H-indol-1-yl}propanoyl)amino]phenyl}butanoic acid] | 2300 | 1.9 |
| CC(C(=O)Nc1cc(C#N)ccc1CCCC(=O)O)c1c[nH]c2ccccc12 (stereo not drawn) [4-[4-cyano-2-[2-(indol-3-yl)propanoylamino]phenyl]butanoic acid, reference compound] | – | 360 |
| CNC(=O)c1ccc2c(C)cn(C(C)C(=O)Nc3cc(CN4CCCS4(=O)=O)ccc3CCCC(=O)O)c2c1 (stereo not drawn) [Example 1, 4-{4-[(1,1-dioxide-1,2-thiazolidin-2-yl)methyl]-2-({2-[3-methyl-6-(methylcarbamoyl)-1H-indol-1-yl]propanoyl}amino)phenyl}butanoic acid] | > 10000 | 27 |
| CNC(=O)c1ccc2c(C)cn(C(C)C(=O)Nc3cc(COc4cc(C)nc(C)c4)ccc3CCCC(=O)O)c2c1 (stereo not drawn) [Example 1-5, 4-[4-{[(2,6-dimethyl-4-pyridinyl)oxy]methyl}-2-({2-[3-methyl-6-(methylcarbamoyl)-1H-indol-1-yl]propanoyl}amino)phenyl]butanoic acid] | – | 4.9 |
| CNC(=O)c1ccc2c(C)cn(C(C)C(=O)Nc3cc(Cn4cc(Cl)cn4)ccc3CCCC(=O)O)c2c1 (stereo not drawn) [Example 1-14, 4-{4-[(4-chloro-1H-pyrazol-1-yl)methyl]-2-({2-[3-methyl-6-(methylcarbamoyl)-1H-indol-1-yl]propanoyl}amino)phenyl}butanoic acid] | – | 3.3 |
| CNC(=O)c1ccc2c(C)cn(C(C)C(=O)Nc3cc(CN4CCCCS4(=O)=O)ccc3CCCC(=O)O)c2c1 (stereo not drawn) [Example 2, 4-{4-[(1,1-dioxide-1,2-thiazinan-2-yl)methyl]-2-({2-[3-methyl-6-(methylcarbamoyl)-1H-indol-1-yl]propanoyl}amino)phenyl}butanoic acid] | – | 39 |
| CNC(=O)c1ccc2c(C)cn(C(C)C(=O)Nc3cc(Cn4cc5c(n4)CCC5)ccc3CCCC(=O)O)c2c1 (stereo not drawn) [Example 2-18, 4-[4-(5,6-dihydrocyclopenta[c]pyrazol-2(4H)-ylmethyl)-2-({2-[3-methyl-6-(methylcarbamoyl)-1H-indol-1-yl]propanoyl}amino)phenyl]butanoic acid] | – | 5.5 |
| CCNC(=O)c1ccc2c(C)cn([C@H](C)C(=O)Nc3cc(C#N)ccc3CCCC(=O)O)c2c1 [Example 11-1(2)] | – | 1.3 |
| Cc1cn(C(C)C(=O)Nc2cc(C#N)ccc2CCCC(=O)O)c2cc(C(=O)NCc3ccccc3)ccc12 (stereo not drawn) [Example 11-8, 4-[2-({2-[6-(benzylcarbamoyl)-3-methyl-1H-indol-1-yl]propanoyl}amino)-4-cyanophenyl]butanoic acid] | – | 4 |
| CNC(=O)c1ccc2c(C)cn(C(C)C(=O)Nc3cc(Oc4ccccc4)ccc3CCCC(=O)O)c2c1 (stereo not drawn) [Example 13, 4-[2-({2-[3-methyl-6-(methylcarbamoyl)-1H-indol-1-yl]propanoyl}amino)-4-phenoxyphenyl]butanoic acid] | – | 0.79 |
| CNC(=O)c1ccc2c(C)cn(C(C)C(=O)Nc3cc(C(O)c4cnn(C)c4)ccc3CCCC(=O)O)c2c1 (stereo not drawn) [Example 18-3] | – | 6.2 |
| CNC(=O)c1ccc2c(C)cn(C(C)C(=O)Nc3cc(C(=O)c4cnn(C)c4)ccc3CCCC(=O)O)c2c1 (stereo not drawn) [Example 18-5(2)] | 120 | 3.2 |
